From US11034650B2, “Compounds useful for treating a Mannheimia haemolytica or Histophilus somni infection” (Intervet Inc., priority 2016, dated 2021) come the findings set out here.

Format in all cases: cell-based
For assay [1], the system named is Mannheimia haemolytica MH 10720 (154, BRD field isolate). Nature of the assay: MIC, broth-microdilution (CLSI VET01-A4), strain MH 10720. As to conditions: Mannheimia haemolytica strain MH 10720, broth-microdilution; unit assumed. In short, it runs like this:
(§1)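 Doubling dilution series in trays; visual read, MIC = lowest conc. with no visible turbidity; interpretation per CLSI VET01-S3.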

Assay [2] has as its system Mannheimia haemolytica MH 6374 (ATCC 33396, reference strain). Nature of the assay: MIC, broth-microdilution (CLSI VET01-A4), strain MH 6374. To be noted: Mannheimia haemolytica strain MH 6374, broth-microdilution; unit assumed. In short, it runs like this:
as §1

The test system of assay [3] is Pasteurella multocida PM 6267 (P 2225 (L386), reference strain, mouse infection strain). Nature of the assay: MIC, broth-microdilution (CLSI VET01-A4), strain PM 6267. To be noted: Pasteurella multocida strain PM 6267, broth-microdilution; unit assumed. The gist of the method: as §1
Assay [4] concerns Mannheimia haemolytica MH 13065 (XB0446-6003.9, BRD field isolate). Nature of the assay: MIC, broth-microdilution (CLSI VET01-A4), strain MH 13065. To be noted: Mannheimia haemolytica strain MH 13065, broth-microdilution; unit assumed. The gist of the method:
as §1

Assay [5] relates to Mannheimia haemolytica MH 13093 (XB0472-6014.1, BRD field isolate). The assay can be described thus: MIC, broth-microdilution (CLSI VET01-A4), strain MH 13093. To be noted: Mannheimia haemolytica strain MH 13093, broth-microdilution; unit assumed. The gist of the method: as §1
Assay [6] relates to Mannheimia haemolytica MH 6357 (M7/2, reference strain, cattle infection strain). Nature of the assay: MIC, broth-microdilution (CLSI VET01-A4), strain MH 6357. As to conditions: Mannheimia haemolytica strain MH 6357, broth-microdilution; unit assumed. In short, it runs like this:
as §1

Assay [7] concerns Mannheimia haemolytica MH 12587 (1071, BRD field isolate, macrolide-resistance: erm+, E+). The assay can be described thus: MIC, broth-microdilution (CLSI VET01-A4), strain MH 12587. As to conditions: Mannheimia haemolytica strain MH 12587, broth-microdilution; unit assumed. In short, it runs like this:
as §1

Assay [8] concerns Pasteurella multocida PM 6391 (ATCC 43137, reference strain). The assay can be described thus: MIC, broth-microdilution (CLSI VET01-A4), strain PM 6391. To be noted: Pasteurella multocida strain PM 6391, broth-microdilution; unit assumed. In short, it runs like this:
as §1

The test system of assay [9] is Pasteurella multocida PM 10775 (080130003051, BRD field isolate). The assay can be described thus: MIC, broth-microdilution (CLSI VET01-A4), strain PM 10775. To be noted: Pasteurella multocida strain PM 10775, broth-microdilution; unit assumed. In short, it runs like this: as §1
Assay [10] deals with Pasteurella multocida PM 12080 (IV102277-0093, BRD field isolate). The assay can be described thus: MIC, broth-microdilution (CLSI VET01-A4), strain PM 12080. As to conditions: Pasteurella multocida strain PM 12080, broth-microdilution; unit assumed. The gist of the method:
as §1

≈ marks a conversion by molar mass, not a printed value.

For `CC(C)([C@H](NC(=O)c1ccc(C#Cc2ccc(CNC3CCCC3)cc2)cc1)C(=O)NO)S(C)(=O)=O` [Compound 264], the MIC MH 10720 in [1] was determined as 1.6 µg/mL (≈ 3.13 µM). For the same compound, in assay [2], the MIC MH 6374 stood at 12.5 µg/mL (≈ 24.4 µM). In assay [3], this compound yielded an MIC PM 6267 of 0.2 µg/mL (≈ 0.391 µM). The compound also returned an MIC MH 13065 in [4] of 6.3 µg/mL (≈ 12.3 µM). In assay [5], this compound yielded an MIC MH 13093 of 6.3 µg/mL (≈ 12.3 µM). This compound returned an MIC MH 6357 in assay [6] of 12.5 µg/mL (≈ 24.4 µM). For the same compound, in assay [7], the MIC MH 12587 came out at 12.5 µg/mL (≈ 24.4 µM). The compound further came in with an MIC PM 6391 in [8] of 0.8 µg/mL (≈ 1.56 µM). In assay [9], this compound had an MIC PM 10775 not above 0.1 µg/mL. Further, the MIC PM 12080 in assay [10] amounted to 0.4 µg/mL (≈ 0.782 µM).

In assay [1], `CCCNCc1ccc(C#Cc2ccc(C(=O)N[C@H](C(=O)NO)C(C)(C)S(C)(=O)=O)cc2)cc1` [Compound 265] yielded an MIC MH 10720 of 0.8 µg/mL (≈ 1.65 µM). Further, the MIC MH 6374 in assay [2] is 6.3 µg/mL (≈ 13 µM). The same compound registered an MIC PM 6267 in assay [3] not above 0.1 µg/mL. The same compound showed an MIC MH 13065 in [4] of 3.1 µg/mL (≈ 6.38 µM). The compound further yielded an MIC MH 13093 in assay [5] of 3.1 µg/mL (≈ 6.38 µM). Besides, in assay [6], the MIC MH 6357 is 6.3 µg/mL (≈ 13 µM). Besides, the MIC MH 12587 in assay [7] is 6.3 µg/mL (≈ 13 µM). The MIC PM 6391 in assay [8] was 0.8 µg/mL (≈ 1.65 µM). Also, in [9], the MIC PM 10775 was not above 0.1 µg/mL. Further, in assay [10], the MIC PM 12080 came out at 0.4 µg/mL (≈ 0.824 µM).

Consider `CC(C)([C@H](NC(=O)c1ccc(C#Cc2ccc(CNCC#N)cc2)cc1)C(=O)NO)S(C)(=O)=O` [Compound 266], for which the MIC MH 10720 in [1] was not above 0.1 µg/mL. Moreover, the MIC MH 6374 in assay [2] was 0.4 µg/mL (≈ 0.829 µM). This compound registered an MIC PM 6267 in assay [3] not above 0.1 µg/mL. The same compound gave an MIC MH 13065 in [4] of 0.8 µg/mL (≈ 1.66 µM). The same compound showed an MIC MH 13093 in assay [5] of 0.8 µg/mL (≈ 1.66 µM). This compound gave an MIC MH 6357 in [6] of 0.8 µg/mL (≈ 1.66 µM). For the same compound, in assay [7], the MIC MH 12587 is 1.6 µg/mL (≈ 3.32 µM). This compound also gave an MIC PM 6391 in assay [8] not above 0.1 µg/mL. This compound also returned an MIC PM 10775 in [9] not above 0.1 µg/mL. In assay [10], this compound came in with an MIC PM 12080 not above 0.1 µg/mL.

In turn, `CC(C)([C@H](NC(=O)c1ccc(C#Cc2ccc(CNCc3ccnc(Cl)c3)cc2)cc1)C(=O)NO)S(C)(=O)=O` [Compound 268] registered an MIC MH 10720 in [1] not above 0.1 µg/mL. The MIC MH 6374 in assay [2] was determined as 0.4 µg/mL (≈ 0.703 µM). The compound also displayed an MIC PM 6267 in assay [3] not above 0.1 µg/mL. The MIC MH 13065 in [4] is 0.2 µg/mL (≈ 0.351 µM). In assay [5], this compound displayed an MIC MH 13093 of 0.4 µg/mL (≈ 0.703 µM). In addition, the MIC MH 6357 in assay [6] is 0.4 µg/mL (≈ 0.703 µM). For the same compound, the MIC MH 12587 in assay [7] came to 0.8 µg/mL (≈ 1.41 µM). In assay [8], this compound gave an MIC PM 6391 not above 0.1 µg/mL. In [9], this compound yielded an MIC PM 10775 not above 0.1 µg/mL. The MIC PM 12080 in assay [10] was not above 0.1 µg/mL.

`CC(C)([C@H](NC(=O)c1ccc(C#Cc2ccc(CNCc3cccs3)cc2)cc1)C(=O)NO)S(C)(=O)=O` [Compound 271]: the MIC MH 10720 in assay [1] was not above 0.1 µg/mL. Further, the MIC MH 6374 in assay [2] amounted to 0.2 µg/mL (≈ 0.371 µM). The same compound returned an MIC PM 6267 in assay [3] not above 0.1 µg/mL. Further, the MIC MH 13065 in [4] amounted to 0.2 µg/mL (≈ 0.371 µM). In assay [5], this compound gave an MIC MH 13093 of 0.4 µg/mL (≈ 0.741 µM). This compound also showed an MIC MH 6357 in assay [6] of 0.4 µg/mL (≈ 0.741 µM). This compound displayed an MIC MH 12587 in assay [7] of 0.8 µg/mL (≈ 1.48 µM). The MIC PM 6391 in [8] is not above 0.1 µg/mL. Moreover, in assay [9], the MIC PM 10775 is not above 0.1 µg/mL. In assay [10], this compound came in with an MIC PM 12080 not above 0.1 µg/mL.

For the compound `Cc1ccc(CNCc2ccc(C#Cc3ccc(C(=O)N[C@H](C(=O)NO)C(C)(C)S(C)(=O)=O)cc3)cc2)cc1` [Compound 272], the MIC MH 10720 in assay [1] is not above 0.1 µg/mL. The same compound returned an MIC MH 6374 in assay [2] of 0.4 µg/mL (≈ 0.73 µM). The compound also returned an MIC PM 6267 in assay [3] not above 0.1 µg/mL. Further, in assay [4], the MIC MH 13065 turned out to be 0.2 µg/mL (≈ 0.365 µM). This compound also showed an MIC MH 13093 in assay [5] of 0.8 µg/mL (≈ 1.46 µM). Moreover, the MIC MH 6357 in assay [6] worked out at 0.8 µg/mL (≈ 1.46 µM). In addition, in assay [7], the MIC MH 12587 was found to be 1.6 µg/mL (≈ 2.92 µM). The compound also registered an MIC PM 6391 in assay [8] of 0.2 µg/mL (≈ 0.365 µM). In assay [9], this compound registered an MIC PM 10775 not above 0.1 µg/mL. Moreover, in [10], the MIC PM 12080 is not above 0.1 µg/mL.

For the compound `CC(C)([C@H](NC(=O)c1ccc(C#Cc2ccc(CNCC3CCCO3)cc2)cc1)C(=O)NO)S(C)(=O)=O` (some centres unmarked) [Compound 273], the MIC MH 10720 in assay [1] was found to be 0.8 µg/mL (≈ 1.52 µM). For the same compound, the MIC MH 6374 in [2] came to 3.1 µg/mL (≈ 5.88 µM). Moreover, in [3], the MIC PM 6267 is not above 0.1 µg/mL. Moreover, the MIC MH 13065 in assay [4] was determined as 3.1 µg/mL (≈ 5.88 µM). The MIC MH 13093 in assay [5] was 6.3 µg/mL (≈ 11.9 µM). This compound also registered an MIC MH 6357 in assay [6] of 6.3 µg/mL (≈ 11.9 µM). Moreover, in [7], the MIC MH 12587 was determined as 6.3 µg/mL (≈ 11.9 µM). Further, the MIC PM 6391 in assay [8] came out at 0.2 µg/mL (≈ 0.379 µM). Moreover, the MIC PM 10775 in assay [9] is not above 0.1 µg/mL. The MIC PM 12080 in assay [10] is not above 0.1 µg/mL.

Regarding `CC(C)(O)[C@H](NC(=O)c1ccc(C#Cc2ccc(CNCc3ccncc3)cc2)cc1)C(=O)NO` [Compound 275], the MIC MH 10720 in assay [1] was not above 0.1 µg/mL. The MIC MH 6374 in assay [2] turned out to be 0.2 µg/mL (≈ 0.423 µM). This compound had an MIC PM 6267 in [3] not above 0.1 µg/mL. In addition, the MIC MH 13065 in assay [4] turned out to be 0.2 µg/mL (≈ 0.423 µM). The same compound had an MIC MH 13093 in [5] of 0.4 µg/mL (≈ 0.846 µM). Moreover, the MIC MH 6357 in [6] stood at 0.4 µg/mL (≈ 0.846 µM). The MIC MH 12587 in assay [7] is 0.4 µg/mL (≈ 0.846 µM). Besides, the MIC PM 6391 in assay [8] was not above 0.1 µg/mL. In assay [9], this compound came in with an MIC PM 10775 not above 0.1 µg/mL. This compound also displayed an MIC PM 12080 in assay [10] not above 0.1 µg/mL.
